Numbered stars: 1 amine (or outer) side, 2 acyl side, 3 side chain; on linkers, the order of the positions; unused ones are H or OH. Bridge positions count the residues as written; N and C are the ends. Square brackets hold non-standard residues; d marks the D form. Peptide text beside a SMILES is read from it. * marks the point of attachment. hTyr(3S-OH,4S-OH,3'-OSO3H) = N[C@H](C(=O)O)[C@H](O)[C@@H](O)c1ccc(O)c(OS(=O)(=O)O)c1; pTerphenylCO(4''-OnC5H11) = CCCCCOc1ccc(-c2ccc(-c3ccc(C(=O)*)cc3)cc2)cc1; Orn(4R-OH,5R-OH) = O=C([C@H](C[C@@H](O)[C@@H](O)N[*:3])N[*:1])[*:2]; hTyr(3S-OH,4S-OH) = N[C@H](C(=O)O)[C@H](O)[C@@H](O)c1ccc(O)cc1; Pro(3S-OH,4S-Me) = C[C@H]1CN[C@H](C(=O)O)[C@H]1O; X1 = CCCCCOc1ccc(-c2cc(-c3ccc(C(=O)*)cc3)no2)cc1; Gln(3R-OH) = NC(=O)C[C@@H](O)[C@H](N)C(=O)O; Hyp = O=C(O)[C@@H]1C[C@@H](O)CN1
How the values were obtained:
Aspergillus flavus = assay: Antifungal activity against Aspergillus flavus isolate 0001-033 after 24 hrs by CLSI M38-A broth microdilution method in presence of 50% human serum; type: functional; conditions: isolate 0001-033, 24 h
Pichia kudriavzevii = assay: Ratio of MIC50 for Candida krusei isolate 0001-058 in presence of 50% human serum to MIC50 for Candida krusei isolate 0001-058 in presence of RPMI 1640 medium; type: functional
Candida parapsilosis [1] = assay: Antifungal activity against Candida parapsilosis isolate 0011-013 after 24 hrs by CLSI M27-A2 broth microdilution method in presence of 50% human serum; type: functional; conditions: Lodderomyces parapsilosis, isolate 0011-013, 24 h
Candida parapsilosis [2] = assay: Ratio of MIC50 for Candida parapsilosis isolate 0026-003 in presence of 50% human serum to MIC50 for Candida parapsilosis isolate 0026-003 in presence of RPMI 1640 medium; type: functional
Candida parapsilosis [3] = assay: Ratio of MIC50 for Candida parapsilosis isolate 0036-030 in presence of 50% human serum to MIC50 for Candida parapsilosis isolate 0036-030 in presence of RPMI 1640 medium; type: functional
Nakaseomyces glabratus = assay: Antifungal activity against Candida glabrata isolate 0022-012 after 24 hrs by CLSI M27-A2 broth microdilution method in presence of RPMI 1640 medium; type: functional; conditions: isolate 0022-012, 24 h
Aspergillus niger = assay: Ratio of MIC50 for Aspergillus niger isolate 0001-073 in presence of 50% human serum to MIC50 for Aspergillus niger isolate 0001-073 in presence of RPMI 1640 medium; type: functional
[4] = Protein binding in human serum at 1 to 1000 ug/mL by scintillation counting; type: ADME, cell-free; conditions: read-out: PB (converted)
[5] = Protein binding in mouse serum at 1 to 1000 ug/mL by scintillation counting; type: ADME, cell-free; conditions: read-out: PB (converted)

MIC50 (Aspergillus flavus) [µg/mL] | MIC50 (Candida parapsilosis [1]) [µg/mL] | MIC50 (Nakaseomyces glabratus) [µg/mL] | fraction unbound [4] | fraction unbound [5] | SMILES | Ratio (Pichia kudriavzevii) | Ratio (Candida parapsilosis [2]) | Ratio (Candida parapsilosis [3]) | Ratio (Aspergillus niger)
128 | 1 | 0.5 | 0.04 | 0.04 | CC[C@H](C)C[C@H](C)CCCCCCCCC(=O)N[C@H]1C[C@@H](O)[C@@H](NCCN)NC(=O)[C@@H]2[C@@H](O)CCN2C(=O)[C@H]([C@H](O)CCN)NC(=O)[C@H]([C@H](O)[C@@H](O)c2ccc(O)cc2)NC(=O)[C@@H]2C[C@@H](O)CN2C(=O)[C@H]([C@@H](C)O)NC1=O [CASPOFUNGIN] | 1 | 8 | 8 | 512
128 | 4 | 0.0156 | – | – | CCCCCOc1ccc(-c2cc(-c3ccc(C(=O)N[C@H]4C[C@@H](O)[C@@H](O)NC(=O)[C@@H]5[C@@H](O)[C@@H](C)CN5C(=O)[C@H]([C@H](O)CC(N)=O)NC(=O)[C@H]([C@H](O)[C@@H](O)c5ccc(O)c(OS(=O)(=O)O)c5)NC(=O)[C@@H]5C[C@@H](O)CN5C(=O)[C@H]([C@@H](C)O)NC4=O)cc3)no2)cc1 [MICAFUNGIN] (X1-[Orn(4R-OH,5R-OH)]T[Hyp][hTyr(3S-OH,4S-OH,3'-OSO3H)][Gln(3R-OH)][Pro(3S-OH,4S-Me)]; lactam 1-C) | 32 | 128 | 256 | 128

SMILES | MIC50 (Aspergillus flavus) [µg/mL] | MIC50 (Candida parapsilosis [1]) [µg/mL] | MIC50 (Nakaseomyces glabratus) [µg/mL] | fraction unbound [4] | fraction unbound [5] | Ratio (Pichia kudriavzevii) | Ratio (Candida parapsilosis [2]) | Ratio (Candida parapsilosis [3]) | Ratio (Aspergillus niger)
CCCCCOc1ccc(-c2ccc(-c3ccc(C(=O)N[C@H]4C[C@@H](O)[C@@H](O)NC(=O)[C@@H]5[C@@H](O)[C@@H](C)CN5C(=O)[C@H]([C@@H](C)O)NC(=O)[C@H]([C@H](O)[C@@H](O)c5ccc(O)cc5)NC(=O)[C@@H]5C[C@@H](O)CN5C(=O)[C@H]([C@@H](C)O)NC4=O)cc3)cc2)cc1 [ANIDULAFUNGIN] ({pTerphenylCO(4''-OnC5H11)}-[Orn(4R-OH,5R-OH)]T[Hyp][hTyr(3S-OH,4S-OH)]T[Pro(3S-OH,4S-Me)]; lactam 1-C) | 128 | 2 | 0.0313 | – | – | 32 | 64 | 128 | 512
